For one molecule, inhibition results are on record in patent US11572590B2, “Methods for evaluating tumor cell spheroids using 3D microfluidic cell culture device” (Dana-Farber Cancer Institute, Inc., priority 2017, dated 2023).

SMILES strings stand for the structures. Read-outs that look alike come from different tables or passages of the source.

What all share (experiment): SelectScreen Kinase Profiling, single point inhibition and IC50 for off-target kinases
Common to all, as to type: biochemical

In experiment [1] the target is T1, off-target kinases (Homo sapiens, UniProt O43318).
T1 sequence (O43318 1-606): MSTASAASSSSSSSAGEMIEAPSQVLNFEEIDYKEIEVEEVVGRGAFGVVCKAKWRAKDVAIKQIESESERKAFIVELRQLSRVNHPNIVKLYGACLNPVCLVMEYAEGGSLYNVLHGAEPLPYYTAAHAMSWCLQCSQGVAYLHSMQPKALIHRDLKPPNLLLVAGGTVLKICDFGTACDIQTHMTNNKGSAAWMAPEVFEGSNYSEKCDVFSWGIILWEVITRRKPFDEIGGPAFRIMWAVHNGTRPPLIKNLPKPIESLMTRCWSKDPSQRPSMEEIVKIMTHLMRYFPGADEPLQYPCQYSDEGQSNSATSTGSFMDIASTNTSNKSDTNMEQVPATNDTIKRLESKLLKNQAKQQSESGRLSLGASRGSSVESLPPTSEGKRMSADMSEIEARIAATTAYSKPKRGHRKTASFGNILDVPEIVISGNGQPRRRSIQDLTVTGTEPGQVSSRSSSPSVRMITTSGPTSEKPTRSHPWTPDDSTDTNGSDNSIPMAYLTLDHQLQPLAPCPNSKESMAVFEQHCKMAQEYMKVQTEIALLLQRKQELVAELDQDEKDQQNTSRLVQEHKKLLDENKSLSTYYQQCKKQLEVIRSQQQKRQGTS
To be noted: MAP3K7/MAP3K7IP1 (TAK1-TAB1), LanthaScreen Binding. (Time-resolved FRET reads energy transfer from a long-lived donor to a nearby acceptor.)

For experiment [2], the target named is off-target kinases (Homo sapiens, UniProt P06241).
off-target kinases (Homo sapiens, UniProt P06241), sequence (P06241 whole entry): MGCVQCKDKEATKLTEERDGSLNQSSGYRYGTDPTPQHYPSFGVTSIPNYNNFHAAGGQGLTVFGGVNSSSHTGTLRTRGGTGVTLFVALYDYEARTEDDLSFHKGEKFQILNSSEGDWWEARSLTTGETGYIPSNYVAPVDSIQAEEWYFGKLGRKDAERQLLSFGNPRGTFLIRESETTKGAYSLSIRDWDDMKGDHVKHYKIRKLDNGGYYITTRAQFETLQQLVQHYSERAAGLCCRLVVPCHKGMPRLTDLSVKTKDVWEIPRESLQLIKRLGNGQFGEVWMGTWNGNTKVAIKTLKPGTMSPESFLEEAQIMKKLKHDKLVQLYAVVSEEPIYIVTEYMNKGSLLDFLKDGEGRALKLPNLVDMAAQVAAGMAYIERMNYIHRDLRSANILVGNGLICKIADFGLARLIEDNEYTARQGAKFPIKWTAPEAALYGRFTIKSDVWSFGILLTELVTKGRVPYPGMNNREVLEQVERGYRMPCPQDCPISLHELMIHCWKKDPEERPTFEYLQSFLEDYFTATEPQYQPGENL
For experiment [3], the target named is off-target kinases (Homo sapiens, UniProt O96017). To be noted: CHEK2 (CHK2), ZLYTE, ATP Km app.
off-target kinases (Homo sapiens, UniProt O96017), sequence (O96017 whole entry): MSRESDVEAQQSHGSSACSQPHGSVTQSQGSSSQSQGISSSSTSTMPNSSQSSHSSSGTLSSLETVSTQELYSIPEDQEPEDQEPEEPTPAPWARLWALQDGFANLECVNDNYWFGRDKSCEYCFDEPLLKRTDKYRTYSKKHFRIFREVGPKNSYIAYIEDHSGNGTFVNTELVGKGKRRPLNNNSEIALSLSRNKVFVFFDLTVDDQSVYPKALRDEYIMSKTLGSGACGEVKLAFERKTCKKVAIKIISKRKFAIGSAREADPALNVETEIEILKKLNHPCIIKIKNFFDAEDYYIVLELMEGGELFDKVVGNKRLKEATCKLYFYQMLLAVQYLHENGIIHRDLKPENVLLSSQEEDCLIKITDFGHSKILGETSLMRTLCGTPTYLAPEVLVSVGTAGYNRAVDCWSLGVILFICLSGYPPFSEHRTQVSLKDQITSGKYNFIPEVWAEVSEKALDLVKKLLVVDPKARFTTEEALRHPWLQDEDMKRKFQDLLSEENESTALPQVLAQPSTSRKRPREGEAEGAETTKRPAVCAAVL
Experiment [4] has as its target off-target kinases (Homo sapiens, UniProt P16234). The conditions noted are these: PDGFRA (PDGFR alpha), ATP Km app, ZLYTE.
For experiment [5], the target named is off-target kinases (Homo sapiens, UniProt Q96GD4). To be noted: AURKB (Aurora B), ATP Km app, ZLYTE.
off-target kinases (Homo sapiens, UniProt Q96GD4), sequence (Q96GD4 whole entry): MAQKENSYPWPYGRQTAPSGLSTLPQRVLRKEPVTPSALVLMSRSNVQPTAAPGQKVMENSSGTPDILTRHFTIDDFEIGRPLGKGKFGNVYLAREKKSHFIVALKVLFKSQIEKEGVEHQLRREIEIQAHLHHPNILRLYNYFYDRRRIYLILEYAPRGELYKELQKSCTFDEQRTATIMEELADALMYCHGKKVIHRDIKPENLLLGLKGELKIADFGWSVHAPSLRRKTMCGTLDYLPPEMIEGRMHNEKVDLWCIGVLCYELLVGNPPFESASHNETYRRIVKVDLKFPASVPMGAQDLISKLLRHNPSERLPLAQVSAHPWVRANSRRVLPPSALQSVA

off-target kinases (Homo sapiens, UniProt P16234), sequence (P16234 24-1089): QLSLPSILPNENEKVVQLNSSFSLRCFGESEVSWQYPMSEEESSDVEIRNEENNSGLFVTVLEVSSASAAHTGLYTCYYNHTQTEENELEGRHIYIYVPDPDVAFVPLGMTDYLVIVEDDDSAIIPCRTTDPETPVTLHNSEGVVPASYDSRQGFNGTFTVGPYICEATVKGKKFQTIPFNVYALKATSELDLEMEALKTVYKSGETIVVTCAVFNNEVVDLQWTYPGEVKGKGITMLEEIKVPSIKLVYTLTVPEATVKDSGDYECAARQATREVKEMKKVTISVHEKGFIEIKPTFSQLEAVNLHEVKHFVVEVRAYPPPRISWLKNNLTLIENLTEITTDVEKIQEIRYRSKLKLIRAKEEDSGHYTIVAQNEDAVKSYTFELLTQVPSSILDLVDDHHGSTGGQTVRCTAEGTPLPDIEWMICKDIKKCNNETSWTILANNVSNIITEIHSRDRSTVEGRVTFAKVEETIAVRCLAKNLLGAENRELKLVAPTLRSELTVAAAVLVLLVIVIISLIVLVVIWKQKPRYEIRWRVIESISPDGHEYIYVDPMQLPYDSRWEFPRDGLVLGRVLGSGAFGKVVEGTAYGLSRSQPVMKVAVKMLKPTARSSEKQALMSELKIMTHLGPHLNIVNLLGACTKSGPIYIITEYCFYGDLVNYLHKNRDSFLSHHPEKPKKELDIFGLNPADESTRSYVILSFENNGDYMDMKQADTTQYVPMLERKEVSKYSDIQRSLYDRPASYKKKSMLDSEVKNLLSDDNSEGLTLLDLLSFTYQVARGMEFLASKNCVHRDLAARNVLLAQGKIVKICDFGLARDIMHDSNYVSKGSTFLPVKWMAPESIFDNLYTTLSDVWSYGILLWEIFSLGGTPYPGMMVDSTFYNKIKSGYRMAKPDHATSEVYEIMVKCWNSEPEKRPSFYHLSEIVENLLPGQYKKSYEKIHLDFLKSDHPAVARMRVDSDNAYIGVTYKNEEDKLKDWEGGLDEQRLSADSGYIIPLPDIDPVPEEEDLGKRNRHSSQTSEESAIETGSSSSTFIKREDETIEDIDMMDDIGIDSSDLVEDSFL

As for `N#Cc1cc(-c2ncnc(Nc3ccc(N4CCN(C5COC5)CC4)cc3)n2)ccc1OC1CCOCC1` [Compound 1, 5-(4-((4-(4-(oxetan-3-yl)piperazin-1-yl)phenyl)amino)-1,3,5-triazin-2-yl)-2-((tetrahydro-2H-pyran-4-yl)oxy)benzonitrile], the inhibition on off-target kinases [1] (read-out: % Inhibition 2) amounted to 22%; at off-target kinases [1] (read-out: % Inhibition Avg), 22%; on off-target kinases [2] (FYN A, LanthaScreen Binding, read-out: % Inhibition Avg), 18%; on off-target kinases [2] (FYN, ATP Km app, ZLYTE, read-out: % Inhibition 1), 85%; at off-target kinases [2] (FYN, ATP Km app, ZLYTE, read-out: % Inhibition 2), 85%; on off-target kinases [2] (FYN, ATP Km app, ZLYTE, read-out: % Inhibition Avg), 85%. The inhibition at off-target kinases [3] (read-out: % Inhibition 1) is 27%; on off-target kinases [3] (read-out: % Inhibition 2), 27%; on off-target kinases [3] (read-out: % Inhibition Avg) it was 27%; on off-target kinases [4] (read-out: % Inhibition 1), 43%; at off-target kinases [4] (read-out: % Inhibition 2), 43%; on off-target kinases [4] (read-out: % Inhibition Avg) it was 43%. Besides, the inhibition turned out to be 54% at off-target kinases [5] (read-out: % Inhibition 1), 48% on off-target kinases [5] (read-out: % Inhibition 2) and 51% on off-target kinases [5] (read-out: % Inhibition Avg).

In general, inhibition refers to the relative decrease from the control value, in per cent.
